Values of other authors in patent US20010006673A1, “LUTEIN- CONTAINING SUPPLEMENT AND PROCESS FOR ENHANCING IMMUNE RESPONSE IN ANIMALS” (priority 1998, published 2001).

Columns and labels:
mouse splenocytes = conditions: cited from earlier work
Splenocytes = conditions: splenocytes from mice injected peritoneally; cited from earlier work
[1] = test system: chemical-induced carcinogenesis; conditions: mice; cited from earlier work
lymphocyte = conditions: rats; cited from earlier work
[2] = test system: tumor necrosis factor (TNF); conditions: hamsters; cited from earlier work
human neuroblastoma cell = conditions: cited from earlier work

SMILES | Ex vivo antibody response to T-dependent antigens (mouse splenocytes) | Antibody response to T-dependent antigens (Splenocytes) | other results
CC1=C(/C=C/C(C)=C/C=C/C(C)=C/C=C/C=C(C)/C=C/C=C(C)/C=C/C2=C(C)C(=O)[C@@H](O)CC2(C)C)C(C)(C)C[C@H](O)C1=O [astaxanthin] | increase | enhanced | –
CC1=C(/C=C/C(C)=C/C=C/C(C)=C/C=C/C=C(C)/C=C/C=C(C)/C=C/C2=C(C)C(=O)CCC2(C)C)C(C)(C)CCC1=O [canthaxanthin] | – | – | Chemical-induced carcinogenesis [1]: prevent; Lymphocyte proliferation (lymphocyte): increase; Production of tumor necrosis factor (TNF) by macrophages [2]: enhance
CC1=CCCC(C)(C)C1/C=C/C(C)=C/C=C/C(C)=C/C=C/C=C(C)/C=C/C=C(C)/C=C/C1=C(C)CCCC1(C)C (stereo not drawn) [α-carotene] | – | – | Human neuroblastoma cell proliferation (human neuroblastoma cell): inhibit
CC1=C(/C=C/C(C)=C/C=C/C(C)=C/C=C/C=C(C)/C=C/C=C(C)/C=C/C2=C(C)CCCC2(C)C)C(C)(C)CCC1 [β-carotene] | increase | enhanced | –
